Results on four compounds are retold here after patent publication US9381349B2, “Apparatus for treating cerebral neurovascular disorders including headaches by neural stimulation” (priority 1997, dated 2016).

For data set [1] the following is noted: in vivo; cited from earlier work.
Data set [2] has as its system acute migraine episodes. In kind it is in vivo, human. The source says: The purpose of the experiments described in this Example was to determine the efficacy of dorsonasal administration of ropivacaine for inhibition of acute migraine episodes. Ropivacaine was dorsonasally administered to individual patients experiencing head pain, other symptoms, or both, believed to be associated with an acute migraine episode. Patients assessed head pain prior to and after ropivacaine administration.
Ropivacaine-HCl (NAROPINT™, Astra USA, Westborough, Mass.) was used as the commercially-available 0.75% (w/v) solution, and was obtained in 30 milliliter, sterile injectable vials.
Three methods were used to achieve dorsonasal delivery of ropivacaine to individual patients. Ropivacaine was administered to a first group of patients by an intranasal drip method. Ropivacaine was administered to a second group using cotton swabs, the absorbent portions of which were saturated with the ropivacaine solution. Ropivacaine was administered to patients in a third group by spraying the ropivacaine solution into each nostril, using either a squeeze-type spray bottle or a metered-dose spray bottle.
The intranasal drip method used to administer ropivacaine to the first group of patients was a based on the method described by Barre (1982, Headache 22:69-73), except that the ropivacaine solution was used in place of the solution used by Bane. Approximately 0.75 milliliter to approximately 1.0 milliliter of the ropivacaine solution was administered by way of each of the nostrils of each patient.
The cotton swab method used to administer ropivacaine to the second group of patients comprised gently inserting cotton swabs, sequentially and bilaterally, into the nostrils of patients and urging the swabs dorsally until their absorbent portions contacted portions of nasal epithelium located dorsal to the middle conchae. Each swab was left in place for approximately one minute, and was then withdrawn. Approximately 0.5 milliliter of the ropivacaine solution was delivered to each nostril using this method.
Patients in a third group were administered ropivacaine by spraying less than about 0.5 milliliter of the ropivacaine solution into each of the patient's nostrils using either a sterile squeeze bottle or a sterile metered-dose spray bottle of known design. The design and operation of each of these spray bottles are well known in the art.
Prior to administration of ropivacaine, each patient was placed in a supine position with the patient's head hyperextended approximately 45 degrees and rotated approximately 30 degrees to the right side. In this position, an imaginary line extending from the region of the nasal epithelium overlying the SPG of the patient through the patient's left nostril was approximately vertical. Ropivacaine was then administered to the left nostril of the patient as described for each of the three groups of patients. Ropivacaine was administered to each patient's right nostril after rotating the patient's head approximately 30 degrees to the left. Ropivacaine was administered to both nostrils of each patient to prevent cases of unilateral migraine from developing into contralateral migraine.
Prior to ropivacaine administration, each patient rated perceived headache pain according to a standard pain scale of the type used in the art. Patients were asked to rank the severity of pain which they were experiencing on a scale from 0 (no pain) to 10 (worst pain imaginable). This ten-point pain rating scale is analogous to, but has more gradations than, the four-point rating system used by the International Headache Society (IHS; Headache Classification Committee of the International Headache Society, 1988, Cephalalgia 8(Suppl. 7):19-28). Ropivacaine was administered to one nostril of each patient, and then to the other. The time required to administer ropivacaine to both nostrils of each patient was approximately three minutes. […]

The test system of data set [3] is migraine. As to conditions: lidocaine, Intranasal Spray; 10-point pain scale.
Data set [4] concerns headache. As to conditions: 10% (w/v) lidocaine solution sprayed through dorsonasal cannula; three patients.
Protocol: The solution was administered by spraying it through a plastic cannula which had been bent to conform its shape such that the outlet of the cannula was located dorsonasally. The cannula was inserted into each nostril, and the solution was sprayed through the cannula, exiting therefrom through the outlet.
For another data set, the system named is nerve structure. As to conditions: intranasally administered; cited from earlier work.
In data set [5] the test system is migraine. As to conditions: intranasal spray of 1-2 milliliters 4% (w/v) lidocaine; within fifteen minutes; cited from earlier work.
The subject of data set [6] is acute migraine episodes. The data set can be described thus: Dorsonasal administration of bupivacaine for inhibition of acute migraine episodes (Example 2). In kind it is in vivo, human. The source says:
The purpose of the experiments described in this Example was to determine the efficacy of dorsonasal administration of bupivacaine for inhibition of acute migraine episodes. Bupivacaine was dorsonasally administered to individual patients experiencing head pain, other symptoms, or both, believed to be associated with an acute migraine episode. Patients assessed head pain prior to and after bupivacaine administration.
The materials and methods used in the procedures performed in this Example were substantially the same as the materials and methods described in Example 1, with the exception that the composition which was administered to the patients described in this example comprised a 0.75% (w/v) solution of bupivacaine.
The organization of and the abbreviations used in Table 6 are analogous to those used in Table 1, with the exception that “B” in the treatment column refers to bupivacaine.

A further data set concerns muscular headache. The data set can be described thus: Dorsonasal administration of bupivacaine for muscular headache episodes (Example 5). In kind it is in vivo, human. As to conditions: for Pain intensity after administration: 0.75% bupivacaine. The source says: The purpose of the experiments described in this Example was to determine the efficacy of dorsonasal administration of bupivacaine for inhibition of muscular headaches. Bupivacaine was dorsonasally administered to four individual patients experiencing head pain and other symptoms associated with a severe muscular headache episode. All of the patients had areas of sustained craniocervical muscle contraction and tenderness which was absent in all patients following headache resolution. Patients assessed head pain prior to and after bupivacaine administration. The four patients and their responses were as follows.

Data set [7] concerns headache. The data set can be described thus: Dorsonasal headache treatment using bupivacaine (Example 8). As to conditions: two patients. In kind it is in vivo, human. How it is done:
Two different headache patients were treated by delivering about 0.25-0.75 milliliters of a 0.75% (w/v) bupivacaine solution to each nostril of the patients. The solution was administered by passing the solution along a plastic cannula having an absorbent portion affixed at the distal (i.e., outlet) portion thereof. This cannula had also been bent to conform its shape such that the outlet of the cannula and the affixed absorbent portion were located dorsonasally. The solution was passed along the cannula, and the cannula was left in place for several minutes.

For data set [8] the following is noted: n-heptane/buffer biphasic system; cited from earlier work.
For data set [9] the following is noted: cited from earlier work.
The next data set deals with tinnitus. As to the kind of experiment: Inhibition of tinnitus by dorsonasal administration of ropivacaine (Example 4). In kind it is in vivo, human. As to conditions: patient 4-2. The source says: Ropivacaine was dorsonasally administered to each of three patients using the nasal spray method or the nasal drops method described herein.
Where [10] appears, read: lidocaine 2.0% (w/v), 1 cc Drops, individual patients, pain scale 0-10.
[11] abbreviates: bupivacaine 0.75% (w/v), 2 Sprays, individual patients, pain scale 0-10.
The mark [12] stands for this setting: bupivacaine 0.75% (w/v), 2 cc Drops, individual patient, pain scale 0-10.

Entries after “also recorded” stand apart in the source; their conditions may differ. Like-named read-outs stand apart in the source and are kept apart here.

As for `CCCN1CCCC[C@@H]1C(=O)Nc1c(C)cccc1C` (single isomer, unassigned) [R(dextro) enantiomer of ropivacaine], the Cardiotoxicity entry in [1] was “Cardiotoxicity is a side effect”.

For the compound `CCN(CC)CC(=O)Nc1c(C)cccc1C` [Lidocaine, lidocaine], the “Oropharyngeal numbness” value in the data set on acute migraine episodes [2] (human, in vivo, 15 min) was found to be 6. Also, in the data set on acute migraine episodes [2] (setting [10]), the “Pain 5 min post-treatment” value is given as “Pain 5 min post-treatment: 2”, the “Pain 30 min post-treatment” value is “Pain 30 min post-treatment: 6” and the “Pain 45 min post-treatment” value was “Pain 45 min post-treatment: 6^B”. Besides, the “Rate of Pain Relief (migraine pain reduction per minute per gram of drug)” value in the data set on migraine [3] was 10.0. For the same compound, the “Relief from headache symptoms” value in the data set with headache [4] is recorded as “All three patients experienced rapid relief”. In addition, the Duration of action entry with nerve structure is “shorter than about one hour”. In addition, the “Patients with decreased head pain / effectiveness to reduce migraine pain” value in the data set with migraine [5] is reported as 55%.

Turning to `CCCCN1CCCCC1C(=O)Nc1c(C)cccc1C` (stereo not shown) [Bupivacaine, bupivacaine], the “Pain 5 min post-treatment” value in the data set with acute migraine episodes [6] (bupivacaine 0.75% (w/v), 2 Sprays, individual patients (first or 2nd treatment), pain scale 0-10, listed as B) is given as “Pain 5 min post-2nd-treatment: 0”; in the data set on acute migraine episodes [6] (setting [12]) it was “Pain 5 min post-treatment: 1-2”; in the data set on acute migraine episodes [6] (bupivacaine 0.75% (w/v), Sat'd Cotton Swab, individual patient, pain scale 0-10) it was “Pain 5 min post-treatment: 0”. Besides, the “Rebound / recurrence at follow-up” value in the data set on acute migraine episodes [6] (bupivacaine 0.75% (w/v), 2 Sprays, individual patients, listed as B) is on record as “Recurrence 4 hours post-treatmt; also recorded: No rebound up to 24 hours”. Also, the “Pain 3 min post-treatment” value in the data set on acute migraine episodes [6] (setting [11]) is recorded as “Pain 3 min post-treatment: 0”. Besides, the “Pain 10 min post-treatment” value with acute migraine episodes [6] (setting [11]) and in the data set with acute migraine episodes [6] (setting [12]) was “Pain 10 min post-treatment: 0” each time. In the data set on acute migraine episodes [6] (bupivacaine 0.75% (w/v), 2 cc Drops, P2#3), the “Associated symptom after treatment” value is “Head pressure persisted”. The Rebound at follow-up result is on record as “No rebound up to 24 hours” in the data set with acute migraine episodes [6] (bupivacaine 0.75% (w/v), 2 cc Drops, individual patients) and “No rebound up to 24 hours” in the data set on acute migraine episodes [6] (bupivacaine 0.75% (w/v), Sat'd Cotton Swab, individual patient). In addition, the “Time to arrest of migraine” value in the data set on acute migraine episodes [6] (bupivacaine 0.75% (w/v), all seven patients) was at most 10 min. Besides, the “Rebound of migraine within twenty-four hours of treatment” value with acute migraine episodes [6] (bupivacaine 0.75% (w/v), seven patients) was “Six of the seven patients treated using bupivacaine experienced no rebound”. The “Efficacy for relief of headache pain associated with migraine” value in the data set on acute migraine episodes [6] (preliminary data) was “efficacy similar to that of ropivacaine”. Also, the “Pain intensity after administration” value with muscular headache (Patient 1, from about 8, within about 15 minutes, tension headache) is listed as 0; in the data set with muscular headache (Patient 2, from about 7, within about 7 minutes, muscle contraction headache) it was 0; in the data set on muscular headache (Patients 3 (from about 5) and 4 (from about 7), within about 5 minutes, tension headache) it was “about 1”. Moreover, in the data set on muscular headache (Patient 4, 5 minutes after treatment), the “Muscle knots after treatment” value is given as “muscle knots were no longer perceived”. Further, in the data set on headache [7] (0.75% (w/v) bupivacaine solution via cannula with absorbent portion), the “Relief from headache symptoms” value is “Both of these patients experienced rapid relief”. In addition, the “Rebound of headache symptoms” value with headache [7] (0.75% (w/v) bupivacaine solution, follow-up about one day) was “neither patient experienced rebound of headache symptoms within about one day”. Also, the “Partition coefficient relative to lidocaine” value in data set [8] is “about 10 times”. For the same compound, the “Proportion bound to protein in vivo” value in data set [9] is recorded as “Approximately 95%”.

For `Oc1ccc2c(c1)[C@@]13CCCC[C@@]1(O)[C@@H](C2)N(CC1CCC1)CC3` [butorphanol], the “Effect of intranasal butorphanol on chronic non-headache pain following intranasal ropivacaine” value with tinnitus was “faster onset and a far more powerful effect”.
